# Article PMC5522529, “Mechanisms of Paradoxical Activation of AMPK by the Kinase Inhibitors SU6656 and Sorafenib” (Cell Chemical Biology, 2017)
# Assays:
# AMPK-α1 (WT) = biological target: T1, AMPK-α1 (WT) (Homo sapiens, UniProt Q13131); experiment: AMPK activity of FLAG-tagged AMPK-α1 (WT) expressed in HEK293 cells; assay type: cell-based; conditions: for AMPK activity and Thr172 phosphorylation: WT FLAG-α1, A769662 300 μM, berberine 300 μM, phenformin 10 mM, troglitazone 100 μM, oligomycin 1 μM, SU6656 100 μM
# T1 construct: we expressed FLAG-tagged full-length AMPK-α1 either as the WT or the AT mutant; expressed in transfected cells; host or cells: HEK293
# T1 sequence (Q13131 whole entry): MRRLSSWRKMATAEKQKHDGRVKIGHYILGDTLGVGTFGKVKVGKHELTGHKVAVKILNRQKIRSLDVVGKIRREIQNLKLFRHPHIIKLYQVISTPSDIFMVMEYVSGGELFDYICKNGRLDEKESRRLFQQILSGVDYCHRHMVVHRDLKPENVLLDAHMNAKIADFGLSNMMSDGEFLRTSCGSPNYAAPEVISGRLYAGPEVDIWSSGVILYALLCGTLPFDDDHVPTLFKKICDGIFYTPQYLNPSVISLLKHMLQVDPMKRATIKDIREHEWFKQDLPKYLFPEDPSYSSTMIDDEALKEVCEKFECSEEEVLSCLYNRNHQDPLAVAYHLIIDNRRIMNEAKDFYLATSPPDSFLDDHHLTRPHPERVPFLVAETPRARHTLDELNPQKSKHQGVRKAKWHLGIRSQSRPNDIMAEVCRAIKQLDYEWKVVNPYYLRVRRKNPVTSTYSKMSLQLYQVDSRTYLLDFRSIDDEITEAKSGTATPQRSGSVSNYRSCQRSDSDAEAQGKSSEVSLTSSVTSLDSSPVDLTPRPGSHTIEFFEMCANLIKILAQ
# T1 sequence (P54619 whole entry partner): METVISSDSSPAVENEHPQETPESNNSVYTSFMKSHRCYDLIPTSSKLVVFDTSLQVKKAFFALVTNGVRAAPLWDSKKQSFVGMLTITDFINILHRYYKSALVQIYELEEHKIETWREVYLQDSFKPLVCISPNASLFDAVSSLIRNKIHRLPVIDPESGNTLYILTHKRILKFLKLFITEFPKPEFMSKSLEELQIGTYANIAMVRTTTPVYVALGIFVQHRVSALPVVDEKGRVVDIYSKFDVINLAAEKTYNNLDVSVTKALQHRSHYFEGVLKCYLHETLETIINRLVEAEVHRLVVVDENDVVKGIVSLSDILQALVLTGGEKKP
# From the text: (B) Western blotting of the same preparations as in (A). […] (D) Allosteric activation of WT and mutant α1β1γ1 complexes by MT 63-78, curve fitting as for (C). […] (E) Allosteric activation of WT and mutant α1β1γ1 complexes by AMP. Data were fitted to the equation for activation/inactivation by AMP ([Gowans et al., 2013]). […] (F) Activation of WT and AA mutant by various AMPK activators in HEK293 cells. […] FLAG-tagged complexes were isolated by immunoprecipitation and AMPK activity determined (mean ± SEM, n = 2).
# We next expressed the FLAG-tagged WT or AA mutant of AMPK-α1 by transient transfection in HEK293 cells, treated with various agents, and measured AMPK activity in anti-FLAG immunoprecipitates. In Figure 4F, the results are expressed as absolute activities and are accompanied by blots showing Thr172 phosphorylation.
# The α1-KD was precipitated using anti-FLAG and endogenous AMPK complexes using anti-α1 antibody, and activity determined. […] (B) Western blots (n = 2) using the indicated antibodies; samples from experiment in (A). (C) DNAs encoding FLAG-tagged AMPK-α1 (WT or AT mutant) were expressed by transient transfection in HEK293 cells, the cells treated with increasing concentrations of SU6656 for 1 hr, AMPK complexes precipitated with anti-FLAG, and activity measured.
# AMPK-γ2 (WT) = biological target: T2, AMPK-γ2 (WT) (Homo sapiens, UniProt Q9UGJ0); experiment: AMPK activity in HEK293 cells expressing WT AMPK-γ2; assay type: cell-based; conditions: 1 hr
# T2 construct: expressed in transfected cells; host or cells: Flp-In T-REx 293 (HEK293), tetracycline-inducible
# T2 sequence (Q9UGJ0 whole entry): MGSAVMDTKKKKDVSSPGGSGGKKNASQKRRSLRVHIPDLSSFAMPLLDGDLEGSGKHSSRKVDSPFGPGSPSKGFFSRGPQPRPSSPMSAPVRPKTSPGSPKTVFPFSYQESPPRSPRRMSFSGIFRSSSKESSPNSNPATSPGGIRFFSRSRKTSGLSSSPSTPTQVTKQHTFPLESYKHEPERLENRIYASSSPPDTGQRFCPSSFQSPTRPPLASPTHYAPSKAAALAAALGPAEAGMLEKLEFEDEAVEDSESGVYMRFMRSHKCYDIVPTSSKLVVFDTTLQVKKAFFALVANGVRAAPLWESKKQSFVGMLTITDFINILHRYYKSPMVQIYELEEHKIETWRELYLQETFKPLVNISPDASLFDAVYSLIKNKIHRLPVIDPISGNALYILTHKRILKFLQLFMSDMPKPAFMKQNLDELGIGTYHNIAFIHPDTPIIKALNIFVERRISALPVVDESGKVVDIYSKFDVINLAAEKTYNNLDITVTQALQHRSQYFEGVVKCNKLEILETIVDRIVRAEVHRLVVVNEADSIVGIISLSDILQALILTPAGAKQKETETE
# From the text: The next possibility was that, like several other AMPK-activating drugs, SU6656 inhibits mitochondrial ATP synthesis, and thus activates AMPK indirectly by increasing cellular AMP/ADP. To test this, we used cell lines inducibly expressing either WT AMPK-γ2 or an AMP/ADP-resistant R531G (RG) mutant ([Hawley et al., 2010]). […] There were no effects of SU6656 on cellular oxygen uptake, unlike berberine. Subsequent addition of the uncoupler 2,4-dinitrophenol (DNP), which prevents the respiratory chain from being limited by ADP supply, increased oxygen uptake identically in control and SU6656-treated cells but had no effect following berberine, as expected for a complex I inhibitor (Figure S2).
# (§1) (B) WT or RG cells were treated as in (A) and nucleotides extracted for analysis (mean ± SD, n = 3). […] (E) (See also Figure S2) Time courses of cellular oxygen uptake before and after addition of the indicated concentrations of sorafenib (SO, μM), SU6656 (100 μM) or phenformin (PHEN, 10 mM) (mean ± SEM, n = 4). (F) Effect of various concentrations of sorafenib or phenformin (10 mM) on activation (top, mean ± SEM, n = 3) or phosphorylation (bottom) of AMPK in cells expressing wild-type AMPK-γ2 (WT) or the R531G mutant AMPK-γ2 (RG). In all panels, asterisks show significant differences from DMSO controls (ns, not significant). In (B), daggers (†) show significant differences between results in WT and RG cells. *p < 0.05, **p < 0.01, ***p < 0.001, ****p < 0.0001, ^††††p < 0.0001.
# HEK-293 cells stably expressing tetracycline-inducible FLAG-tagged human AMPK-γ2, or an R531G mutant, were generated by introducing the corresponding DNAs into Flp-In™ T-REx™ 293 cells ([Auciello et al., 2014]). Expression of the FLAG-tagged constructs was induced for 48 hr using tetracycline (1 μg.ml^-1) prior to addition of compounds under test. Transient transfections were carried out 36-48 hr prior to experiments, using Fugene 6 according to manufacturers’ instructions.
# [1] = biological target: T3, endogenous full-length α1 complexes (Homo sapiens, UniProt Q13131); experiment: Activity of endogenous full-length α1 complexes in HEK293 cells; assay type: cell-based; conditions: 1 hr
# T3 construct: endogenous in cells
# T3 sequence (Q13131 whole entry): as the sequence (Q13131 whole entry) above
# T3 sequence (P54619 whole entry partner): as the sequence (P54619 whole entry partner) above
# From the text: We next expressed an FLAG-tagged α1 kinase domain (α1-KD, residues 1–312) by transient transfection in HEK293 cells, treated the cells with various AMPK activators, and then assayed both the expressed α1-KD (precipitated using anti-FLAG) and endogenous full-length α1 complexes (precipitated using anti-α1 antibodies recognizing an epitope outside the α1-KD). […] This was also observed with A23187, as expected since this ionophore increases intracellular Ca^2+ and activates the alternate upstream kinase CaMKK2.
# The α1-KD was precipitated using anti-FLAG and endogenous AMPK complexes using anti-α1 antibody, and activity determined. Results (mean ± SD, n = 2) are expressed relative to activities in DMSO controls. (B) Western blots (n = 2) using the indicated antibodies; samples from experiment in (A). (C) DNAs encoding FLAG-tagged AMPK-α1 (WT or AT mutant) were expressed by transient transfection in HEK293 cells, the cells treated with increasing concentrations of SU6656 for 1 hr, AMPK complexes precipitated with anti-FLAG, and activity measured. Results (mean ± SD, n = 3) are expressed relative to the DMSO control. […] Results (mean ± SD, n = 3) are expressed relative to the DMSO control. **p < 0.01, ***p < 0.001, ****p < 0.0001, ^†††p < 0.001; ns, not significant.
# HEK293 cells = experiment: Cellular oxygen uptake; assay type: cell-based, human
# Method: as §1
# Cellular oxygen consumption rate was measured using a Seahorse XF24 Extracellular Flux Analyser according to manufacturers’ instructions, as specified previously ([Hawley et al., 2010]).
# Oxygen uptake of HEK-293 cells measured under basal conditions
# (open bars), after addition of the indicated concentration of SU6656 or berberine (300 µM) (gray bars), then after subsequent addition of the uncoupler 2,4-dinitrophenol (DNP, hatched bars, 100 µM) […]
# different before and after addition of SU6656 or berberine, while […]
# subsequent addition of DNP.
kinase activity / Thr172 phosphorylation [1],"AMPK activity (AMPK-α1 (WT); WT FLAG-α1 (comparison with AT mutant), 1 hr)","increase in activity and Thr172 phosphorylation (AMPK-α1 (WT); WT FLAG-α1, 100 μM, relative to DMSO control) [fold]",SMILES,AMPK activity and Thr172 phosphorylation (AMPK-α1 (WT); 1 hr),AMPK activity (AMPK-γ2 (WT)),cellular oxygen uptake (HEK293 cells),concentrations that rapidly inhibited cellular oxygen uptake (HEK293 cells) [µM]
doing this with the endogenous complexes,,,COc1ccc2cc3[n+](cc2c1OC)CCc1cc2c(cc1-3)OCO2 [berberine],activated AMPK and caused Thr172 phosphorylation,activated AMPK in the WT,,
increased kinase activity,robustly activated,3,CN(C)S(=O)(=O)c1ccc2c(c1)/C(=C/c1cc3c([nH]1)CCCC3)C(=O)N2 [SU6656],activated AMPK and caused Thr172 phosphorylation,activated AMPK and enhanced Thr172 phosphorylation in both WT and RG cells,no effects,
,,,CNC(=O)c1cc(Oc2ccc(NC(=O)Nc3ccc(Cl)c(C(F)(F)F)c3)cc2)ccn1 [sorafenib],,,,3 to 30
